These results are taken from ChEMBL document CHEMBL1141043, “Novel, selective indole-based ECE inhibitors: lead optimization via solid-phase and classical synthesis” (Bioorg Med Chem Lett, 2005).

Usually IC50 stands for the concentration that inhibits the measured activity by half. A higher IC50 goes with a need for much substance.

One assay addresses T1, Endothelin-converting enzyme 1 (Homo sapiens, UniProt P42892).
T1 sequence (P42892 whole entry): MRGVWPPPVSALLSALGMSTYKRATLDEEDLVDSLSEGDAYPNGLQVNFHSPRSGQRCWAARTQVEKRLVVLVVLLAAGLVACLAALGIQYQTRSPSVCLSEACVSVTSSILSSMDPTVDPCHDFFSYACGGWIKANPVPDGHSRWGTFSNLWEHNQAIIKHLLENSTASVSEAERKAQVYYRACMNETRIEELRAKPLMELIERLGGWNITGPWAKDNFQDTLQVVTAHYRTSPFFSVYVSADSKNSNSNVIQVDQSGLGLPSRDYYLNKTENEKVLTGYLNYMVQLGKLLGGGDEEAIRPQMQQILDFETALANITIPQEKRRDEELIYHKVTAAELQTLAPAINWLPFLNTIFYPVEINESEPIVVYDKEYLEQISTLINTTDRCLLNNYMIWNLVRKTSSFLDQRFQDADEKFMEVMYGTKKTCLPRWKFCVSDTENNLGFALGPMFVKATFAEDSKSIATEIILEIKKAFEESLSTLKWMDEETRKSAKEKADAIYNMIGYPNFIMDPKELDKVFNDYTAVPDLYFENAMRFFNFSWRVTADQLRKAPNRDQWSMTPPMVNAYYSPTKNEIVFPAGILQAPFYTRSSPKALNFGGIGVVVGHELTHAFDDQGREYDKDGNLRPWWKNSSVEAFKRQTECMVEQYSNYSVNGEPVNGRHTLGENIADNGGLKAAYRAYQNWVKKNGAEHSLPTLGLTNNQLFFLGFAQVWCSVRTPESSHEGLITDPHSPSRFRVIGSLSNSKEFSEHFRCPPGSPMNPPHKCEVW
In words: Inhibitory concentration against endothelin converting enzyme 1 using bradykinin-derived substrate.
The compound `CC(C)(C)CC(=O)Nc1ccc2c(c1)cc(CNc1ccccc1)n2Cc1ccccc1F` registered an IC50 of more than 10000 nM.
Still for that read-out and setting: in the case of `CC(C)(C)CC(=O)Nc1ccc2c(c1)cc(-c1nc(-c3ccccc3)no1)n2Cc1ccccc1F` it was more than 10000 nM; in that of `CC(C)(C)CC(=O)Nc1ccc2c(c1)cc(C(=O)Nc1ccn[nH]1)n2Cc1ccccc1F`, more than 10000 nM.
Compound `CC(C)(C)CC(=O)Nc1ccc2c(c1)c(C(=O)Nc1ccccc1)cn2Cc1ccccc1F` gave an IC50 of more than 10000 nM.

The next assay concerns the target T1, Endothelin-converting enzyme 1. In words: Inhibitory concentration against endothelin converting enzyme 1 using big-ET-1 substrate in ELISA.
Compound `CNS(=O)(=O)c1ccc(NC(=O)c2cccc(NC(=O)c3cc4cc(NC(=O)CC(C)(C)C)ccc4n3Cc3ccccc3F)c2)cc1` yielded an IC50 of 150 nM.
For the compound `CC(C)(C)CC(=O)Nc1ccc2c(c1)cc(C(=O)Nc1cccc(C(=O)Nc3ccc(S(C)(=O)=O)cc3)c1)n2Cc1ccccc1F`, the IC50 was found to be 120 nM.
Turning to `C[S+]([O-])c1ccc(NC(=O)c2cccc(NC(=O)c3cc4cc(NC(=O)CC(C)(C)C)ccc4n3Cc3ccccc3F)c2)cc1` (stereo not drawn), the midpoint of inhibition, the IC50, lay at 66 nM.
For the compound `CC(C)(C)CC(=O)Nc1ccc2c(c1)cc(C(=O)Nc1cccc(C(=O)Nc3ccc(S(N)(=O)=O)cc3)c1)n2Cc1ccccc1F`, the IC50 was 39 nM.
